In publication PMC9618981, “Impact of peptide permeation enhancer on tight junctions opening cellular mechanisms” (Biochemistry and Biophysics Reports, 2022):
Values belong to the molecule of their own block, whether it stands above or below them. Ends that are not written are not given here. Peptide text beside a SMILES is read from it. * marks the point of attachment. Myristoyl = CCCCCCCCCCCCCC(=O)*

Assays:
[1] = system: occludin expression in Caco-2 cells; assay: Immunoblot of total protein extracts from Caco-2 cells, occludin; type: cell-based, human; settings: Caco-2, 1 h, peptides 50 μM, In 10 μM
Procedure: (§1) Caco-2 cells (ATCC, Manassas, VA, USA) were cultured in T75 flasks (Merck, Schaffhausen, Switzerland). The cells were incubated at 37 °C and a humidified atmosphere containing 5% of CO2. The medium containing 10% fetal bovine serum (FBS, Thermofisher, Waltham, MA, USA) was changed every 2–3 days. The Caco-2 cells were passaged every 5 days. The passage numbers were between 33 and 36.
(§2) For Western blot experiments, cells were seeded in 12-well plates (Merck, Schaffhausen, Switzerland) at a density of 50′000 cells/cm^2. For the proteomic experiments, the cells were seeded in T10 flasks (Merck, Schaffhausen, Switzerland) at the same initial seeding density. After 7 days and two washes with warm phosphate buffered saline (PBS, Thermofisher, Waltham, MA, USA), the conditions were applied for 1 h. Peptides were applied at a concentration between 20 and 100 μM. A chemical inhibitor of PKC ζ was also tested. The molecule 4f was used at a concentration of 10 μM in 0.1% DMSO as a positive control. […]
(§3) 50 μg cell extracts and p-threonine proteins were separated by SDS-polyacrylamide gel electrophoresis (4–15%) (Bio-Rad, Hercules, CA, USA) and transferred to nitrocellulose membrane. […] These primary antibodies were then recognized by anti-mouse and anti-rabbit antibodies (Li-Cor Biosciences, Lincoln, NE, USA) and detected by Odyssey® imaging system (Li-Cor Biosciences). […]

[2] = system: ZO-1 expression in Caco-2 cells; assay: Immunoblot of total protein extracts from Caco-2 cells, ZO-1; type: cell-based, human; settings: Caco-2, 1 h, peptides 50 μM, In 10 μM, normalised to actin
Procedure: as §1, §2, §3

Caco-2 cells = assay: Quantitative proteomic analysis (DIA LC-MS/MS) of Caco-2 cells; type: cell-based, human; settings: Caco-2, 1 h
Procedure: For Western blot experiments, cells were seeded in 12-well plates (Merck, Schaffhausen, Switzerland) at a density of 50′000 cells/cm^2. For the proteomic experiments, the cells were seeded in T10 flasks (Merck, Schaffhausen, Switzerland) at the same initial seeding density. After 7 days and two washes with warm phosphate buffered saline (PBS, Thermofisher, Waltham, MA, USA), the conditions were applied for 1 h. Peptides were applied at a concentration between 20 and 100 μM. A chemical inhibitor of PKC ζ was also tested. The molecule 4f was used at a concentration of 10 μM in 0.1% DMSO as a positive control. All dilutions were done in 0.9% saline solution. After incubation, cells for Western blot experiments were lysed with RIPA buffer (Cell signalling, Danvers, MA, USA) containing protease and phosphatase inhibitors (Roche, Basel, Switzerland). After centrifugation to discard cell components, the samples were stored at −20 °C. Cells for proteomic analysis were detached with trypsin, washed 3 times with PBS and kept at −80 °C until analysis. Samples for proteomic analysis were produced in triplicate for each condition.
Cell pellets were resuspended in 100 μL of 0.1% RapiGest Surfactant (Waters, Milford, MA, USA) in 50 mM ammonium bicarbonate (AB). Samples were heated for 5 min at 100 °C. Lysis was performed by sonication (6 × 30 s) at 70% amplitude and 0.5 pulse. Samples were kept 30 s on ice between each cycle of sonication. Samples were centrifuged for 10 min at 14′000×g. Protein concentration was measured by Bradford assay and 25 μg of each sample was subjected to protein digestion as follows: the sample volume was adjusted to 100 μL with 0.1% RapiGest in 50 mM AB. 2 μL of 50 mM dithioerythritol (DTE) were added and the reduction was carried out at 60 °C for 1h. Alkylation was performed by adding 2 μL of iodoacetamide 400 mM during 1 h at room temperature in the dark. Overnight digestion was performed at 37 °C with 5 μL of freshly prepared trypsin (Promega AG, Dübendorf, Switzerland) in 50 mM AB at a concentration of 0.2 μg/μL. To remove RapiGest, samples were acidified with trifluoroacetic acid (TFA), heated at 37 °C for 45 min and centrifuged 10 min at 17′000×g. Supernatants were then desalted with a C18 microspin column (Harvard Apparatus, Holliston, MA, USA) according to the manufacturer's instructions, completely dried under speed-vacuum and stored at −20 °C.
Samples were diluted at 1 μg/μL with loading buffer (5% CH3CN, 0.1% FA). Biognosys iRT peptides were added to each sample and 2 μg of peptides were injected onto the column. LC-ESI-MS/MS was performed on an Orbitrap Fusion Lumos Tribrid mass spectrometer (Thermo Scientific, San Jose, CA, USA) equipped with an Easy nLC1200 liquid chromatography system (Thermo Scientific, San Jose, CA, USA). Peptides were trapped on an Acclaim pepmap100, C18, 3 μm, 75 μm × 20 mm nano trap-column (Thermofisher) and separated on a 75 μm × 500 mm, C18 ReproSil-Pur (Dr. Maisch GmbH, Ammerbuch, Germany), 1.9 μm, 100 Å, custom-made column. The analytical separation was run for 135 min using a gradient of H2O/FA 99.9%/0.1% (solvent A) and CH3CN/H2O/FA 80.0%/19.9%/0.1% (solvent B). The gradient was run from 8% B to 28% B in 110 min, then to 42% B in 25 min, then to 95%B in 5 min with a final stay of 20 min at 95% B. Flow rate was of 250 nL/min a total run time was of 160 min. Data-Independent Acquisition (DIA) was performed with MS1 full scan at a resolution of 60,000 (FWHM) followed by 30 DIA MS2 scan with fix windows. MS1 was performed in the Orbitrap with an automatic gain control (AGC) target of 1 × 10^6, a maximum injection time of 50 ms and a scan range from 400 to 1240 m/z. DIA MS2 was performed in the Orbitrap using higher-energy collisional dissociation (HCD) at 30%. Isolation window was set to 28 m/z with an AGC target of 1 × 10^6 and a maximum injection time of 54 ms. […]

[3] = previous studies; cited from earlier work
Source text: Previous studies have shown that ZIP is not specifically and competitively inhibiting PKC ζ phosphorylation of some TJ proteins (occludin and ZO-1). The structural similarities of the PS of the PKC family does explain this non-specificity. Therefore, L-R5 would also be competitive with other PKCs and would interfere with most intracellular mechanisms involving PKCs. […] Given the absence o ...

[4] = target: protein kinase C zeta (PKC ζ) (not stated (only the C-terminal fragment is called human)) (UniProt Q05513); assay: MST; labelled PKC ζ fixed at 30 nM; occludin in serial dilution 0-11300 nM; L-R5 present as competitor at a fixed 1.25 mM; Tris buffer pH 7.4; hydrophilic capillaries
[5] = target: protein kinase C zeta (PKC ζ) (not stated (only the C-terminal fragment is called human)) (UniProt Q05513); assay: MST; PKC ζ labelled by RED-Tris-NTA on its His tag, fixed (20 nM with L-R5 at 0-4000 μM; 30 nM with occludin at 0-35000 nM); ligand in serial dilution; Tris buffer pH 7.4; hydrophilic capillaries; 20%, 40% and 80% MST power
occludin = target: T1, occludin (UniProt Q16625 1-522); assay: MST; occludin labelled by RED-Tris-NTA on its His tag, fixed at 50 nM; L-R5 in serial dilution 0-25000 μM; Tris buffer pH 7.4; hydrophilic capillaries; 20%, 40% and 80% MST power; settings: both partners purified
T1 chain: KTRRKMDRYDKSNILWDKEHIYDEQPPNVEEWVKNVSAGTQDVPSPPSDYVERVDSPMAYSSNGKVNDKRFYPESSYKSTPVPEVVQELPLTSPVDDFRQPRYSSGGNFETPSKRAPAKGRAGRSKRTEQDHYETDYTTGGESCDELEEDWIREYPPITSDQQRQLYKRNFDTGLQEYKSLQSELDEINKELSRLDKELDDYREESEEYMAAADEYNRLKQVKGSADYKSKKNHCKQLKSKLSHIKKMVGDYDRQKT

[6] = target: T2, PKC ζ-occludin interaction (Homo sapiens, UniProt Q16625); assay: Microscale thermophoresis (MST), interaction between PKC ζ and occludin, without and with L-R5 as competitor; type: binding; settings: labelled PKC ζ 30 nM, occludin as ligand 0-35 μM, no competitor, Tris buffer pH 7.4, n = 2
T2 construct: purchased Eurofins pharma (PKC ζ); occludin source not clearly printed (probably RayBiotech); host or cells: Sf21 insect cells (PKC ζ)
T2 sequence (Q16625 266-522 limits assumed): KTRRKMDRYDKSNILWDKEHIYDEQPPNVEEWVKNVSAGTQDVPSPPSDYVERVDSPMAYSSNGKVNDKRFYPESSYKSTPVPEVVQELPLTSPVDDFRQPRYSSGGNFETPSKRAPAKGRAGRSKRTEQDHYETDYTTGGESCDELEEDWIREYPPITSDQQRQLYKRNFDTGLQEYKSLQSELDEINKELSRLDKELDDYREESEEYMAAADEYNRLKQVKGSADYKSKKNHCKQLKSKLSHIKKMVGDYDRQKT
Procedure: The protein construct of PKC ζ active (recombinant enzyme expressed in Sf21 insect cells) was purchased from Eurofins pharma (Dundee, United Kingdom) and the recombinant human […] was purchased from RayBiotech (Peachtree Corners, GA, USA). Fluorescent labelling of both, PKC ζ and occludin was performed following the protocol of coupling the His-tag labelling kit RED-Tris-NTA 2nd generation (Nanotemper Technologies, Munich, Germany) to their respective histidine tail. The fluorescence of the tagged proteins was then measured with the monolith NT.115 microscale thermophoresis instrument (Nanotemper Technologies, Munich, Germany). An excitation LED of 100% was set for the Cap. Scan. The predicted optimal dilution was then calculated to obtain a final fluorescence signal of 100 Raw fluorescence [counts].
Hydrophilic capillaries were used for the different tests because the samples interacted with standard capillaries. […] The different solutions were analysed by MST at 20%, 40% and 80% MST power with a 100% LED intensity. […] The results and Kd values were analysed by MO.affinity analysis 3 software (Nanotemper Technologies, Munich, Germany).
Microscale thermophoresis is a method used to quantify the affinity between two molecules (e.g., proteins) by increasing the concentration of the ligand while keeping the concentration of the target fixed. […]

Molecule: CC(C)(C)C1=NN(c2cccc(Cl)c2)C(c2ccc(F)c(O)c2)C1 (centres unmarked) [In, 5-(3-(tert-Butyl)-1-(3-chlorophenyl)-4,5-dihydro-1H-pyrazol-5-yl)-2-fluorophenol]
TJ protein expression (occludin and ZO-1, Western blot, Fig. 3) [1]: did not result in a significant decrease
expression of occludin (Western blot) ([1]; normalised to actin): no effect
expression of ZO-1 (Western blot) [2]: no effect
number of downregulated proteins versus control (log 2 (FC) < 0) (Caco-2 cells; L-R5 50 μM or In 10 μM, n = 3): 10 proteins
number of upregulated proteins versus control (log 2 (FC) ≥ 0) (Caco-2 cells; L-R5 50 μM or In 10 μM, n = 3): 6 proteins
number of significantly differentially expressed proteins versus control (Caco-2 cells; L-R5 50 μM or In 10 μM, p ≤ 0.05, n = 3): 16 proteins
expression of E1A binding protein p300 (proteomics) (Caco-2 cells; L-R5 50 μM, In 10 μM, n = 3): significantly decreased
expression of ZO-1 (proteomics) (Caco-2 cells; L-R5 50 μM, In 10 μM, n = 3): no impact
expression of occludin (proteomics) (Caco-2 cells; L-R5 50 μM, In 10 μM, n = 3): no impact

Molecule: CCCCCCCCCCCCCC(=O)N[C@@H](C)C(=O)N[C@@H](CCCNC(=N)N)C(=O)N[C@@H](CCCNC(=N)N)C(=O)N[C@@H](Cc1c[nH]c2ccccc12)C(=O)N[C@@H](CCCNC(=N)N)C(=O)O [L-R5] (Myristoyl-ARRWR-OH)
in vitro cytotoxicity [3]: absence of cytotoxicity

Kd [4]: 2160 nM
Kd [5]: 617 nM
Molecule: occludin (from UniProt Q16625 1-522) (natural protein)

Kd (occludin): 606000 nM
B1: L-R5 (myr-ARRWR), myristoylated pentapeptide (peptide)
peptide: Myristoyl-ARRWR
notes: also called L-R5 peptide; source: synthetic peptide, obtained from Bachem AG

Kd [6]: 617 nM
B2: occludin: tight junction protein, His-tagged recombinant, used as ligand and as labelled target in MST (protein, UniProt Q16625 1-522, looked up)
Occludin: MSSRPLESPPPYRPDEFKPNHYAPSNDIYGGEMHVRPMLSQPAYSFYPEDEILHFYKWTSPPGVIRILSMLIIVMCIAIFACVASTLAWDRGYGTSLLGGSVGYPYGGSGFGSYGSGYGYGYGYGYGYGGYTDPRAAKGFMLAMAAFCFIAALVIFVTSVIRSEMSRTRRYYLSVIIVSAILGIMVFIATIVYIMGVNPTAQSSGSLYGSQIYALCNQFYTPAATGLYVDQYLYHYCVVDPQEAIAIVLGFMIIVAFALIIFFAVKTRRKMDRYDKSNILWDKEHIYDEQPPNVEEWVKNVSAGTQDVPSPPSDYVERVDSPMAYSSNGKVNDKRFYPESSYKSTPVPEVVQELPLTSPVDDFRQPRYSSGGNFETPSKRAPAKGRAGRSKRTEQDHYETDYTTGGESCDELEEDWIREYPPITSDQQRQLYKRNFDTGLQEYKSLQSELDEINKELSRLDKELDDYREESEEYMAAADEYNRLKQVKGSADYKSKKNHCKQLKSKLSHIKKMVGDYDRQKT
modifications: His tag
notes: tight junction protein, His-tagged recombinant, used as ligand and as labelled target in MST
